From PubChem BioAssay AID1918934 (Molecular Pharmacology Branch, DTP, NCI, 2023) come the findings set out here.

For the test, the system named is 292921-168-R-J2-PDC complex spheroid viability. As to the kind of experiment: Anticancer human tumor 292921-168-R-J2-PDC patient-derived pancreatic carcinoma cell line growth inhibition. Conditions: for viability, T/C: stronger effect = lower value. The text has this:
Multicellular complex tumor spheroid response to LSD1 Inhibitor Iadademstat in combination with a variety of drugs and investigational agents in selected tumor cell lines
The current study was undertaken to assess response to LSD1 inhibitors in combination with standard-of-care drugs and investigational agents in solid tumor complex spheroid models as well as in the K-562 leukemia. Complex spheroids include a stromal component modeled by human endothelial cells (HUVEC) and fibroblasts modeled by human mesenchymal stem cells (MSCs). The concentration ranges selected for each drug and investigational agent were based upon clinically achievable concentrations if the clinical Cmax of the agent was known.
Compounds. The drugs and investigational agents used in this study are listed on Table 1. All of the agents used, including staurosporine (NSC755774) and gemcitabine (NSC613327), were obtained from the Developmental Therapeutics Program, NCI. FDA-approved anticancer drugs are available from the NCI at http://dtp.nci.nih.gov/branches/dscb/oncology_drugset_explanation.html. Drugs and investigational agents were >95% pure by proton nuclear magnetic resonance (NMR) and liquid chromatography/mass spectrometry (LC/MS). Stock solutions were prepared at 400x in DMSO, stored at -70 degrees C, and diluted in fresh medium prior to their use. The final concentration of DMSO in cell culture wells never exceeded 0.25% (v/v). The FDA-approved anticancer drug set is available from the Developmental Therapeutics Program at https://dtp.cancer.gov/organization/dscb/obtaining/available_plates.htm. All drugs and investigational agents were tested over a range starting from a high concentration at or near the clinical Cmax and decreasing in half-log increments. If the clinical Cmax for an agent had not been determined, the highest concentration tested was 10 microM.
Cell Lines. The patient-derived cancer cell (PDC) lines: 292921-168-R-J2-PDC, K24384-001-R-PDC, and 521955-158-R2-J5-PDC pancreatic carcinomas, 556581-035-R-J1 ovarian carcinoma, 324938-238-R-J1-PDC, 855422-203-R-J1-PDC and 883617-216-R-J1-PDC urothelial bladder carcinomas, 743489-274-T-PDC renal cell carcinoma, 138582-R-J1 Merkel cell tumor, K60290-347-R-J1 and K57222-313-R-J1-PDC glioblastomas, 653999-131-R-J2-PDC, LG0703-F948-PDC, and 349418-098-R-PDC non-small cell lung carcinomas, 885512-296-R-J2-PDC, 171881-019-R-J1-PDC breast carcinomas and 186277-243-T-J2-PDC and 233499-124-R-J2-PDC colon carcinomas were obtained from the NCI Patient-Derived Models Repository (PDMR, https://pdmr.cancer.gov). The established cell lines NCI/ADR-RES (RRID:CVCL_14520 and OVCAR-5 (RRID:CVCL_1628) ovarian carcinomas, 786-O (RRID:CVCL_1051) and A498 (RRID:CVCL_A498) renal cell carcinoma, NCI-H211 (ATCC, cat. CRL-5824; RRID:CVCL_1529), NCI-H196 (ATCC, cat. CRL-5823, RRID:CVCL_1509), SW 1271 (ATCC, cat. CRL-2177, RRID:CVCL_1716) and NCI-H1876 (ATCC, cat. CRL-5902, RRID:CVCL_1503) small cell lung carcinomas, MDA-MB-231 (RRID:CVCL_0062) and MDA-MB-468 (RRID:CVCL_0419)breast carcinomas (10-12). Pooled donor human umbilical vein endothelial cells (HUVEC, Lonza, cat. CC-2519) and human mesenchymal stem cells (hMSC, Lonza, cat. PT-2501) were purchased from Lonza (Walkersville, MD).
Cell Culture. All cells were maintained in an incubator at 37 degrees C and 5% CO2 with 95% humidity. The PDC lines were cultured according to standard operating procedures established by the NCI PDMR (https://pdmr.cancer.gov). Briefly all PDCs were thawed and cultured in Matrigel-coated flasks prepared with a working solution of 1X Ham's F-12 nutrient mix, without supplementation (Invitrogen, Waltham, MA, cat. 11765054), 100 U/mL penicillin-streptomycin (Invitrogen, cat. 15140122), and 2.5% Matrigel (Corning Inc., Corning, NY, cat. 354248) for the first three passages. […]

Where [1] appears, read: curve of first compound, second compound 0.1 µM.
Setting [2] is: curve of first compound, second compound 0.316 µM.
[3] abbreviates: curve of first compound, second compound 1 µM.
The mark [4] stands for this setting: curve of first compound, second compound 3.16 µM.
Where [5] appears, read: curve of first compound, second compound 10 µM.
Where [6] appears, read: second compound 0.1 µM, first compound 0.0316 µM.
[7] abbreviates: second compound 0.1 µM, first compound 0.1 µM.
The mark [8] stands for this setting: second compound 0.1 µM, first compound 0.316 µM.
Where [9] appears, read: second compound 0.1 µM, first compound 1 µM.
[10] abbreviates: second compound 0.1 µM, first compound 3.16 µM.
The mark [11] stands for this setting: second compound 0.1 µM, first compound 10 µM.
The mark [12] stands for this setting: second compound 0.316 µM, first compound 0.0316 µM.
Where [13] appears, read: second compound 0.316 µM, first compound 0.1 µM.
[14] abbreviates: second compound 0.316 µM, first compound 0.316 µM.
The mark [15] stands for this setting: second compound 0.316 µM, first compound 1 µM.
[16] abbreviates: second compound 0.316 µM, first compound 3.16 µM.
The mark [17] stands for this setting: second compound 0.316 µM, first compound 10 µM.
Setting [18] is: second compound 1 µM, first compound 0.0316 µM.
Setting [19] is: second compound 1 µM, first compound 0.1 µM.
Setting [20] is: second compound 1 µM, first compound 0.316 µM.
The mark [21] stands for this setting: second compound 1 µM, first compound 1 µM.
Setting [22] is: second compound 1 µM, first compound 3.16 µM.
[23] abbreviates: second compound 1 µM, first compound 10 µM.
The mark [24] stands for this setting: second compound 3.16 µM, first compound 0.0316 µM.
The mark [25] stands for this setting: second compound 3.16 µM, first compound 0.1 µM.
Where [26] appears, read: second compound 3.16 µM, first compound 0.316 µM.
[27] abbreviates: second compound 3.16 µM, first compound 1 µM.
[28] abbreviates: second compound 3.16 µM, first compound 3.16 µM.
[29] abbreviates: second compound 3.16 µM, first compound 10 µM.
Setting [30] is: second compound 10 µM, first compound 0.0316 µM.
The mark [31] stands for this setting: second compound 10 µM, first compound 0.1 µM.
Setting [32] is: second compound 10 µM, first compound 0.316 µM.
The mark [33] stands for this setting: second compound 10 µM, first compound 1 µM.
Setting [34] is: second compound 10 µM, first compound 3.16 µM.
Where [35] appears, read: second compound 10 µM, first compound 10 µM.

As a reminder, the pIC50 is −log10 of the IC50, conventionally taken in molar units. In general, viability, T/C refers to the result in the treated group divided by that in the control group, in per cent.

pIC50: −log10 of the molar value. “And” between values parts separate entries of the source, which are not always exact repeats. Identical values can stand only once.
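Further: seven day compound exposure before luminescent viability read.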

As to `O=C(c1cc(Cc2n[nH]c(=O)c3ccccc23)ccc1F)N1CCN(C(=O)C2CC2)CC1` + NC1CCC(NC2CC2c2ccccc2)CC1, the pIC50 is, setting by setting: under setting [1], 5.34; under setting [2], 5.52; under setting [3], 5.97; under setting [4], 5.91; under setting [5], 5.89. Also, the viability, T/C runs as follows: under setting [6], 63.7%; under setting [7], 65.6%; under setting [8], 70.3%; under setting [9], 58.6%; under setting [10], 55%; under setting [11], 39.5%. The viability, T/C reads like this: under setting [12], 61.5%; under setting [13], 59.8%; under setting [14], 64.7%; under setting [15], 57.1%; under setting [16], 47.5%; under setting [17], 36%. The viability, T/C reads like this: under setting [18], 55.5%; under setting [19], 58.6%; under setting [20], 51.8%; under setting [21], 51.9%; under setting [22], 42.5%; under setting [23], 31.8%. Further, the viability, T/C is 55.4% under setting [24]; 54.5% under setting [25]; 60% under setting [26]; 50.3% under setting [27]; 42% under setting [28]; 34.9% under setting [29]. The viability, T/C is, setting by setting: under setting [30], 53.9%; under setting [31], 54.4%; under setting [32], 54.4%; under setting [33], 52%; under setting [34], 42.9%; under setting [35], 32%.
On to `CCc1c2c(nc3ccc(O)cc13)-c1cc3c(c(=O)n1C2)COC(=O)[C@]3(O)CC`, for which the viability, T/C was 5.38% and 4.72% (compound 0.000949 µM); 3.5% and 2.75% (compound 0.003 µM); 1.25% and 1.31% (compound 0.00949 µM); 0.84% and 1.16% (compound 0.03 µM); 1.07% and 1.04% (compound 0.0949 µM); 0.92% and 1.24% (compound 0.3 µM). Moreover, the pIC50 (curve of compound) was over 9.02.
Take `CC1(C)CCC(CN2CCN(c3ccc(C(=O)NS(=O)(=O)c4ccc(NCC5CCOCC5)c([N+](=O)[O-])c4)c(Oc4cnc5[nH]ccc5c4)c3)CC2)=C(c2ccc(Cl)cc2)C1` + NC1CCC(NC2CC2c2ccccc2)CC1: the pIC50 is 5.79 under setting [1]; 5.88 under setting [2]; 5.88 under setting [3]; 5.90 under setting [4]; 5.95 under setting [5]. Also, the viability, T/C was 63.5% under setting [6]; 71.4% under setting [7]; 73.3% under setting [8]; 72.4% under setting [9]; 23.2% under setting [10]; 0.18% under setting [11]. Also, the viability, T/C by setting is: under setting [12], 66.3%; under setting [13], 60.1%; under setting [14], 68.2%; under setting [15], 60.1%; under setting [16], 15.8%; under setting [17], 0.25%. Besides, the viability, T/C was 53% under setting [18]; 58.8% under setting [19]; 65.4% under setting [20]; 67.6% under setting [21]; 16.2% under setting [22]; 0.26% under setting [23]. Moreover, the viability, T/C was 58.1% under setting [24]; 60.9% under setting [25]; 62.3% under setting [26]; 59.4% under setting [27]; 12.2% under setting [28]; 0.14% under setting [29]. The viability, T/C under setting [30] was 64.2%; the viability, T/C under setting [31] was 64%; the viability, T/C under setting [32] is 66.4%; the viability, T/C under setting [33] is 53.4%; the viability, T/C under setting [34] was 12.7%; the viability, T/C under setting [35] was 0.23%.
Regarding `NC1CCC(NC2CC2c2ccccc2)CC1` (stereo unspecified), the viability, T/C is 65.7% [middle of 25 runs] (compound 0.1 µM); 56.6% and 63.5% (compound 0.316 µM); 58% [middle of 25 runs] (compound 1 µM); 57.4% [middle of 25 runs] (compound 3.16 µM); 54.2% [middle of 23 runs] (compound 10 µM).
On to `O=C(C=Cn1cnc(-c2cc(C(F)(F)F)cc(C(F)(F)F)c2)n1)NNc1cnccn1`, for which the viability, T/C is, setting by setting: (compound 0.00316 µM) 59.5% and 55.2%; (compound 0.01 µM) 55.9% and 55%; (compound 0.0316 µM) 30.4% and 29.4%; (compound 0.1 µM) 14.4% and 14.1%; (compound 0.316 µM) 8.05% and 8.45%; (compound 1 µM) 5.62% and 5.3%. Moreover, for the setting “curve of compound”, the pIC50 is 7.91 and 7.94.
As for `CC1(C)CCC(CN2CCN(c3ccc(C(=O)NS(=O)(=O)c4ccc(NCC5CCOCC5)c([N+](=O)[O-])c4)c(Oc4cnc5[nH]ccc5c4)c3)CC2)=C(c2ccc(Cl)cc2)C1`, the viability, T/C runs as follows: (compound 0.0316 µM) 105% and 108%; (compound 0.1 µM) 114%; (compound 0.316 µM) 110% and 108%; (compound 1 µM) 98.1% and 94.9%; (compound 3.16 µM) 20% and 19.2%; (compound 10 µM) 0.32% and 0.33%. For the same compound, the negative logarithm of the IC50 (pIC50) (curve of compound) is 5.69 and 5.70.
